The record followed here is patent US20250333377A1, “SOLID FORM OF NAPHTHYLAMINE MITOPHAGY INDUCER, AND PREPARATION METHOD THEREFOR, PHARMACEUTICAL COMPOSITION THEREOF AND USE THEREOF” (HANGZHOU PHECDAMED CO., LTD., priority 2023, published 2025).

In brackets after ≈: the same amount, converted by molar mass.

A word on the solubility: it is the dissolved amount per volume that the medium holds. A lower solubility goes with little dissolved substance. Broadly, the Kd is the equilibrium constant for the complex coming apart.

Data set [1] in a line: Solubility in FaSSIF, FeSSIF, water and SGF. Format: physicochemical. The note with it: for solubility at 0.5 h / solubility at 2 h / solubility at 24 h: thermodynamic from solid; for Solubility: SGF. The method, then: Aliquots of the samples are placed in the media FaSSIF buffer, FeSSIF buffer, water and SGF and tested for solubility at 0.5, 2 and 24 hours, respectively.

Another data set has as its target Mcl-1 protein (Homo sapiens, UniProt Q07820). Description: Affinity test of recombinant Mcl-1 protein (SPR, Biacore). The data set is classed as binding. The source says: The binding affinity of the sodium salt D crystal form of TJ01-013 to the Mcl-1 protein is studied by an in vitro Surface Plasmon Resonance (SPR) test, using a Biacore analyzer and measuring with a CM5 chip being coupled to the protein.

The next data set concerns HEK293T cells. Description: Selective induction of autophagy in damaged mitochondria, Keima HEK293 cell model. The data set is classed as cell-based. As to conditions: 0 μM, 2.5 μM, 5 μM, 10 μM; mitochondria damaged with CCCP; FIG. 42; P=0.0425. The method, then: In HEK293T cells in vitro, fusing Keima fluorescent protein derived from the coral and the mitochondrial localization sequence of cytochrome C oxidase subunit IV asmtKeima protein, staining the nuclei with Hoechst33342 nuclear dye, and using the ThermoCellInsight™ CX7 LZR High Content Screening (HCS) platform at EX/EM=594 nm/620 nm conditions to assess mitophagy levels. The autophagy level of damaged mitochondria is tested by disrupting the mitochondrial membrane potential using […] Carbonyl cyanide 3-chlorophenylhydrazone (CCCP), causing mitochondrial damage.

Chain of Mcl-1 protein (Q07820 whole entry, species assumed): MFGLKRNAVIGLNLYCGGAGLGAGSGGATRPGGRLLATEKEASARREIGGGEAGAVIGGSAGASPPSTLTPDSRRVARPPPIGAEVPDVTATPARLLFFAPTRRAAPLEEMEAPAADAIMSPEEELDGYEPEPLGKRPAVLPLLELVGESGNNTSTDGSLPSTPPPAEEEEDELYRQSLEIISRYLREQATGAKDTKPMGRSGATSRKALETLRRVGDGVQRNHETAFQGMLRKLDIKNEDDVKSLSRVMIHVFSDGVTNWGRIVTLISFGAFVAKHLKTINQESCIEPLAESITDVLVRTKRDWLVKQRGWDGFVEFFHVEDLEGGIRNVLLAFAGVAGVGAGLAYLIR

Turning to `O=C(O)C[S+]([O-])c1cc(NS(=O)(=O)c2ccc(Br)cc2)c2ccccc2c1O` (stereo not shown) [Embodiment 4], the solubility at 0.5 h in data set [1] (FaSSIF buffer, FaSSIF, 0.5 h) stood at 3300 µg/mL (≈ 6.81 mM); in data set [1] (FeSSIF buffer, FeSSIF, 0.5 h) it was 1320 µg/mL (≈ 2.73 mM); in data set [1] (Water, 0.5 h) it was 4100 µg/mL (≈ 8.46 mM). The solubility at 2 h in data set [1] (FaSSIF buffer, FaSSIF, 2 h) worked out at 3270 µg/mL (≈ 6.75 mM); in data set [1] (FeSSIF buffer, FeSSIF, 2 h), 1380 µg/mL (≈ 2.85 mM); in data set [1] (Water, 2 h) it was 4190 µg/mL (≈ 8.65 mM). The solubility at 24 h in data set [1] (FaSSIF buffer, FaSSIF, 24 h) stood at 2340 µg/mL (≈ 4.83 mM); in data set [1] (FeSSIF buffer, FeSSIF, 24 h), 1290 µg/mL (≈ 2.66 mM); in data set [1] (Water, 24 h), 3870 µg/mL (≈ 7.99 mM). Further, the “Solubility (in words)” value was “low solubility” in data set [1] (SGF (FIG. 41)) and “high solubility” in data set [1] (water, FaSSIF, FeSSIF (FIG. 41)). Also, the Solubility entry in data set [1] (0.5 h), in data set [1] (2 h) and in data set [1] (24 h) was “Not detected” throughout. Also, on Mcl-1 protein (CM5 chip coupled to the protein, read-out: Affinity constant KD), the Kd worked out at 1120 nM. In addition, the kon at Mcl-1 protein (CM5 chip, read-out: Binding constant ka) came to 1090 M⁻¹ s⁻¹. Further, the “Remarks (kind of binding)” value on Mcl-1 protein (listed as TJ0113) was “specific”; at Mcl-1 protein (listed as sodium salt D crystal form of TJ01-013), “can bind specifically to Mcl-1 protein”. For the same compound, in the data set with HEK293T cells, the “Induction of autophagy in damaged mitochondria (mitophagy level, mtKeima)” value is given as “selectively induce autophagy in the damaged mitochondria”.
